“Also recorded” adds a separate entry of the source. Like-named read-outs stand apart in the source and are kept apart here.
Key:
SJGBM2 glioma = conditions: for efficacy (survival): compound 13 10 mg/kg po + TMZ
B16 melanoma = test: Mouse intracranial model of B16 melanoma, combination with TMZ; type: in vivo, mice; conditions: for survival time: compound 13 10 mg/kg oral + TMZ vs TMZ as single agent (P<0.0001)
[1] = Bioavailability and brain/plasma levels in rats; conditions: 30 mg/kg; for Kp / bioavailability: rat; for Kp: brain; for bioavailability: plasma, po
[2] = Bioavailability and brain/plasma levels in mice; conditions: 30 mg/kg; for Kp / bioavailability: mouse; for Kp: brain; for bioavailability: plasma, po
in vivo [3] = conditions: mouse, po, 30 mg/kg
in vivo [4] = conditions: rat, po, 30 mg/kg
[5] = Plasma and tissue pharmacokinetic properties in mice, rats, and dogs (general statements); type: in vivo; conditions: in words
Protocol: AUC was calculated using the Linear/Log rule.
Selective PARP inhibitors were tested for basic plasma and tissue pharmacokinetic properties in mice, rats, and dogs. After assessment, this family compounds appear to be orally bioavailable in all species and to penetrate brain and tumor tissue.

[6] = tested on: Human HNSCC cell line JHU012; test: Enhancement of radiation treatment of head and neck squamous cell carcinoma xenograft; type: in vivo, BALB/c nude mice
Protocol: Human HNSCC cell line JHU012 was used, having been previously genetically characterized and originally derived at the Johns Hopkins University Head and Neck Laboratories from human tumor explants. The cell line was maintained in RPMI 1640 medium with 10% fetal bovine serum and 1% penicillin/streptomycin at 5% CO2 in 37° C. humidified incubators. Experiments were performed on 6-week-old male BALB/c nude mice nu/nu. […] Mice were anesthetized by intraperitoneal injection of […] tribromoethanol. Tumors were established at the right flank by subcutaneous injection of 1×10^7 cells. Fourteen days post cell injection tumors were surgically exposed and measured in 3 dimensions using calipers.

BRCA-1 null cells = test: Tumor growth in mice bearing BRCA-1 deficient tumors; type: in vivo, nu/nu mice
Protocol: 1×10^6 BRCA-1 null cells were injected subcutaneously on the right flank of female nu/nu mice (6-7 weeks old; Harlan Sprague Dawley, Indianapolis Ind.). After approximately 10-14 days, the tumors were approximately 100 mm^3. Mice were sorted into groups so that mean tumor size was similar among groups with minimum standard deviations. Dosing started the day after sorting and tumor volume was monitored three times per week. Tumors were measured in two diameters and volume calculated by […]. Mice were removed from the study when tumors reached 1500 mm^3. “Time to Endpoint” or TTE (the number of days it takes for the tumor to reach 1500 mm^3 or greater) is the endpoint of the study. […] The compound was dosed orally, daily for 28 days from start of the study—day 1. A positive control was utilized, using a well known PARP inhibitor shown to be effective as a stand alone agent in the BRCA models (Bryant et al). The positive control agent was dosed at 25 mg/kg IP qdx5 from start of experiment.

In the case of `O=c1[nH]nc2c3c(cccc13)N=C(CN1CC=C(c3ccccc3)CC1)N2` [Compound 13, 8-(4-phenyl-3,6-dihydro-2H-pyridin-1-ylmethyl)-2,9-dihydro-1,2,7,9-tetraaza-phenalen-3-one], the “MTS (median survival time)” value (SJGBM2 glioma; compound 13 10 mg/kg po 15 min pre-TMZ, combination with TMZ (P=0.002)) is reported as 25 days, the “efficacy (survival)” value (SJGBM2 glioma) is reported as “enhanced survival” and the “efficacy (survival)” value (SJGBM2 glioma; listed as compound 13) is reported as “efficacious”. The survival time (B16 melanoma) was “enhance survival” and the survival time (B16 melanoma; listed as compound 13) was “significantly increased the survival time”.

Molecule `O=c1[nH]nc2c3c(cccc13)N=C(CN1CCN(c3ccccc3)CC1)N2` has a Kp [1] of 0.4, a bioavailability [1] of 58% and a Kp [2] of 0.49. For the same molecule, the bioavailability [2] was 49%.

For `O=c1[nH]nc2c3c(cccc13)N=C(CN1Cc3ccccc3C1)N2` [drawing 99], the Kp [1] was 0.36, the bioavailability [1] was 45% and the Kp [2] was 0.26. The bioavailability [2] was 81%.

`O=c1[nH]nc2c3c(cccc13)N=C(CN1CC=C(c3ccccc3)CC1)N2` [drawing 97] gave a Kp [1] of 0.42, a bioavailability (in vivo [3]) of 61% and a Kp [2] of 0.46. For the same molecule, the bioavailability (in vivo [4]) was 51%.

For `Cn1nnc2c(C(N)=O)ncn2c1=O` [TMZ, temozolomide, reference compound], the “MTS (median survival time)” value (SJGBM2 glioma; TMZ alone) was 22.5 days, the “response of SJGBM2 to TMZ” value (SJGBM2 glioma; TMZ as single agent) was “ineffective” and the survival times (B16 melanoma; TMZ treated vs control group) was “No significant differences in survival times”.

With `O=c1[nH]nc2c3c(cccc13)N=C(CN1CCC(c3ccccc3)CC1)N2` the bioavailability [1] was 50%, the “B/P in rats (ratio of brain to plasma levels)” value ([1]; rats) was 71-117% and the “B/P in mice (ratio of brain to plasma levels)” value ([2]; mice) was 30-64%. For the same molecule, the bioavailability [2] was 75%.

With `O=c1[nH]nc2c3c(cccc13)N=C(CN1CCOCC1)N2` [drawing 95] the Kp [1] was < 0.05, the bioavailability [1] was 77% and the Kp [2] was < 0.05. It also gave a bioavailability [2] of 77%.

With `O=c1[nH]nc2c3c(cccc13)N=C(CN1CCOCC1)N2` [prior art compound] the oral bioavailability [5] was “good bioavailability” and the “ratio of brain to plasma levels” value [5] was “very low”.

With `O=c1[nH]nc2c3c(cccc13)N=C(CN1Cc3ccccc3C1)N2` [Compound 37, 8-(1,3-dihydro-isoindol-2-ylmethyl)-2,9-dihydro-1,2,7,9-tetraaza-phenalen-3-one] the tumor growth inhibition ([6]; 100 mg/kg Compound 37 PO qdx17 alone compared to vehicle controls) was “no significant effect on tumor growth inhibition”, the tumor growth inhibition ([6]; Compound 37 30 mg/kg PO + radiation compared to radiation alone) was “no significant effect on tumor growth inhibition” and the “inhibition of tumor growth” value ([6]; Compound 37 oral (100 mg/kg) + radiation vs control) was “significant inhibition of tumor growth”. The “tumor volume at end of experiment” value ([6]; Group 5: 100 mg/kg Compound 37 PO + Radiation (2 gy/day for 2 days), day 31, control 585.9 mm^3, p<0.01) was 209.04 mm^3, the animal survival (SJGBM2 glioma; 10 mg/kg Compound 37 + TMZ five days followed by Compound 37 100 mg/kg for 14 days vs 10 mg/kg Compound 37 + TMZ five days) was “significantly increased animal survival” and the tumor growth (BRCA-1 null cells; 100 mg/kg Compound 37 orally, daily for 28 days, vs vehicle controls) was “effective in significantly retarding tumor growth; also recorded: inhibition of growth”. For the same molecule, the “time until tumors start to grow after dosing stopped at day 28” value (BRCA-1 null cells; Compound 37 100 mg/kg po daily for 28 days) was 10 to 14 days, the “tumor growth delay compared to positive control” value (BRCA-1 null cells; Compound 37 100 mg/kg po vs positive control PARP inhibitor 25 mg/kg IP qdx5 (p<0.05)) was “delayed tumor growth compared to the positive control” and the mean survival time (B16 melanoma; Compound 37 12.5 mg/kg oral + TMZ vs TMZ as single agent) was “significantly higher; also recorded: enhance survival”.

From US8894989B2, “PARP inhibitor compounds, compositions and methods of use” (Eisai Inc., priority 2007, dated 2014)
